We go through 17 compounds from publication PMC8134453.

The IC50 is the concentration that gives 50% inhibition. A word on the Ki: it is a measure of affinity in units of concentration, obtained from inhibition or displacement. A lower Ki goes with a stronger hold on the target. One may read the melting point as the temperature, or range, at which the solid turns liquid.

“Also recorded” adds a separate entry of the source. Like-named read-outs stand apart in the source and are kept apart here.

The target of data set [1] is T1, Jack bean (JB) urease (Canavalia ensiformis, UniProt P07374).
T1 construct: purchased Sigma-Aldrich (USA)
T1 sequence (P07374 whole entry, looked up): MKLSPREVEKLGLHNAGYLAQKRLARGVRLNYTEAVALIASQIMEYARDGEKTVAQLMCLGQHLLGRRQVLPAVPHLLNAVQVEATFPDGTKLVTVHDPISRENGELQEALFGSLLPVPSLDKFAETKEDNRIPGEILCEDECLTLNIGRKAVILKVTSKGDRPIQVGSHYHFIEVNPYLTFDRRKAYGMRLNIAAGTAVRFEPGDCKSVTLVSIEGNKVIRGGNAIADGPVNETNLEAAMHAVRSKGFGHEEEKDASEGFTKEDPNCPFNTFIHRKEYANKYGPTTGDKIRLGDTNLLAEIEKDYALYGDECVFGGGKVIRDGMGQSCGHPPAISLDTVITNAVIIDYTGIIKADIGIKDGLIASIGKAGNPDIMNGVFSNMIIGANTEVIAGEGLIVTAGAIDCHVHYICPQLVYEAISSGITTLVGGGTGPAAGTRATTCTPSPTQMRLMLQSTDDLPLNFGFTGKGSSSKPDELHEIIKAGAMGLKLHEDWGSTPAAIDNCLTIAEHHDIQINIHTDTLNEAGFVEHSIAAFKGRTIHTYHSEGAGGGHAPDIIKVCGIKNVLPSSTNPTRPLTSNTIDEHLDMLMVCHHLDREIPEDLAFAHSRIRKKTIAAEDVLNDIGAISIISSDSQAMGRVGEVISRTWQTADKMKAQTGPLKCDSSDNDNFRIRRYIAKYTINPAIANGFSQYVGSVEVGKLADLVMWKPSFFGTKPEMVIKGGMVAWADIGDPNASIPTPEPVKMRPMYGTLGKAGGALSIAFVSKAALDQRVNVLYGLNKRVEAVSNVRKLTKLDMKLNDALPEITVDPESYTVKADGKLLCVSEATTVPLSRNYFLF
The data set is described as follows: Urease inhibition, modified Berthelot spectrophotometric method. Format: biochemical. As to the method: All used material and JB urease (EC 3.5.1.5) were purchased from Sigma–Aldrich (USA). Potassium phosphate buffer (PPB) solution with concentration 100 mM and pH = 7.4 was prepared in distilled water. […] The enzymatic reactions were performed in PPB solution which reach to the 985 μL by adding urea (850 μL) and the synthesized compound (100 μL, 0–10 mg/mL). Then, urease (15 μL) was added and the concentration of liberated ammonia was measured after 60 min. The corresponding concentration of ammonia was determined by addition of the incubated solution (100 μL) to the mixture of 500 μL of solution I (5.0 g phenol and 25.0 mg sodium nitroprusside in 500 mL water) and 500 μL of solution II (2.5 g sodium hydroxide and 4.2 mL sodium hypochlorite (5% chlorine) in 500 mL water) which was incubated at 37 °C for 30 min. The absorbance was obtained by measuring indophenols. The activity of uninhibited JB urease was considered as the control activity of 100%. The inhibition assays were conducted according to this formula: I (%) = [1 − (T/C)] × 100; where I (%) is the enzyme inhibition, T (test) is the absorbance of the analyzed compounds in the presence of urease solution, and C (control) is the absorbance of the solvent in the presence of urease solution. Data were expressed as mean ± […] and run in triplicate. […] Thiourea and hydroxyurea were used as the standard inhibitors for urease.

For data set [2], the target named is T1, Jack bean (JB) urease. Briefly: Urease kinetic study (Lineweaver–Burk plots). Format: biochemical.
Experimental: The inhibition mode and Ki value were determined by Lineweaver–Burk plots and secondary re-plotting of the mentioned plots, respectively.
All used material and JB urease (EC 3.5.1.5) were purchased from Sigma–Aldrich (USA). Potassium phosphate buffer (PPB) solution with concentration 100 mM and pH = 7.4 was prepared in distilled water. […] The enzymatic reactions were performed in PPB solution which reach to the 985 μL by adding urea (850 μL) and the synthesized compound (100 μL, 0–10 mg/mL). Then, urease (15 μL) was added and the concentration of liberated ammonia was measured after 60 min. The corresponding concentration of ammonia was determined by addition of the incubated solution (100 μL) to the mixture of 500 μL of solution I (5.0 g phenol and 25.0 mg sodium nitroprusside in 500 mL water) and 500 μL of solution II (2.5 g sodium hydroxide and 4.2 mL sodium hypochlorite (5% chlorine) in 500 mL water) which was incubated at 37 °C for 30 min. The absorbance was obtained by measuring indophenols. The activity of uninhibited JB urease was considered as the control activity of 100%. The inhibition assays were conducted according to this formula: I (%) = [1 − (T/C)] × 100; where I (%) is the enzyme inhibition, T (test) is the absorbance of the analyzed compounds in the presence of urease solution, and C (control) is the absorbance of the solvent in the presence of urease solution. Data were expressed as mean ± standard error (SD) and run in triplicate. […] Thiourea and hydroxyurea were used as the standard inhibitors for urease.
For data set [3] the following is noted: no reference given; cited from earlier work.
Where [4] appears, read: Jack bean urease, mean ± standard error of the mean, at least three experiments, read-out: IC50 against urease.

On to `CN1C(=O)C(=CN/N=C/c2cc([N+](=O)[O-])ccc2Cl)C(=O)N(C)C1=O` [Compound 7k, (E)-5-((2-(2-chloro-5-nitrobenzylidene)hydrazinyl)methylene)-1,3-dimethylpyrimidine 2,4,6(1H,3H,5H)-trione], for which the IC50 in data set [1] (setting [4]) was found to be 3940 ± 250 nM.
Regarding `CN1C(=O)C(=CN/N=C/c2cccc(Oc3ccccc3)c2)C(=O)N(C)C1=O` [Compound 7e, (E)-1,3-dimethyl-5-((2-(3-phenoxybenzylidene)hydrazinyl)methylene)pyrimidine-2,4,6(1H,3H,5H)-trione], the IC50 in data set [1] (setting [4]) was 2850 ± 230 nM.
Still for that read-out and setting: the figure for `CN1C(=O)C(=CN/N=C/c2cccs2)C(=O)N(C)C1=O` [Compound 7m, (E)-1,3-dimethyl-5-((2-(thiophen-2-ylmethylene)hydrazinyl)methylene)pyrimidine2,4,6(1H,3H,5H)-trione] is 860 ± 80 nM.
On to `CN1C(=O)C(=CN/N=C/c2ccc([N+](=O)[O-])cc2)C(=O)N(C)C1=O` [Compound 7i, (E)-1,3-dimethyl-5-((2-(4-nitrobenzylidene)hydrazinyl)methylene)pyrimidine-2,4,6(1H,3H,5H)-trione], for which, in data set [1] (setting [4]), the IC50 is 1310 ± 90 nM. The “decrease of inhibitory activity relative to 2-nitro derivative 7h” value in data set [1] (urease IC50 compared with 7h) is “about two”.
Take `CN1C(=O)C(=CN/N=C/c2ccccc2)C(=O)N(C)C1=O` [Compound 7a, (E)-5-((2-benzylidenehydrazinyl)methylene)-1,3-dimethylpyrimidine-2,4,6(1H,3H,5H)-trione]: the IC50 in data set [1] (setting [4]) was 4430 ± 210 nM.
On to `CN1C(=O)C(=CN/N=C/c2cccc(Br)c2)C(=O)N(C)C1=O` [Compound 7g, (E)-5-((2-(3-bromobenzylidene)hydrazinyl)methylene)-1,3-dimethylpyrimidine-2,4,6(1H,3H,5H)-trione], for which, in data set [1] (setting [4]), the IC50 is 3620 ± 190 nM.
Compound `CN1C(=O)C(=CN/N=C/c2ccccc2[N+](=O)[O-])C(=O)N(C)C1=O` [Compound 7h, (E)-1,3-dimethyl-5-((2-(2-nitrobenzylidene)hydrazinyl)methylene)pyrimidine-2,4,6(1H,3H,5H)-trione] had a melting point of 178 to 180 °C. The compound also yielded an IC50 in data set [1] of 610 ± 60 nM. Also, in data set [1] (ratio of urease IC50 values), the “activity fold superior to parent phenyl derivative 7a” value is given as 7.2 fold and the “times more potent than thiourea” value amounted to 37.7 times. The Ki in data set [2] was 820 nM. Moreover, in data set [2] (Lineweaver–Burk plot), the inhibition mode entry is on record as “mixed-type inhibitor; also recorded: mix-mode inhibitor”.
Regarding `CN1C(=O)C(=CN/N=C/c2ccc(Cl)s2)C(=O)N(C)C1=O` [Compound 7n, (E)-5-((2-((5-chlorothiophen-2-yl)methylene)hydrazinyl)methylene)-1,3-dimethylpyrimidine-2,4,6(1H,3H,5H)-trione], the IC50 in data set [1] (setting [4]) amounted to 4560 ± 180 nM.
On the same count and under the same terms, the figure for `CN1C(=O)C(=CN/N=C/c2ccc(Cl)cc2)C(=O)N(C)C1=O` [Compound 7f, (E)-5-((2-(4-chlorobenzylidene)hydrazinyl)methylene)-1,3-dimethylpyrimidine-2,4,6(1H,3H,5H)-trione] is 3560 ± 160 nM.
Consider `NC(=O)NO` [Hydroxyurea, reference compound], for which the IC50 in data set [1] (setting [4]) was determined as 100000 ± 150 nM. The experimental solubility in data set [3] was 100 mg/mL.
With `CN1C(=O)C(=CN/N=C/c2cccc3ccccc23)C(=O)N(C)C1=O` [Compound 7o, (E)-1,3-dimethyl-5-((2-(naphthalen-1-ylmethylene)hydrazinyl)methylene)pyrimidine-2,4,6(1H,3H,5H)-trione], it took 1940 ± 220 nM to reach half-maximal inhibition in data set [1] (IC50).
Consider `COc1cc(/C=N/NC=C2C(=O)N(C)C(=O)N(C)C2=O)cc(OC)c1OC` [Compound 7d, (E)-1,3-dimethyl-5-((2-(3,4,5-trimethoxybenzylidene)hydrazinyl)methylene)pyrimidine-2,4,6(1H,3H,5H)-trione], for which the IC50 in data set [1] (setting [4]) amounted to 2530 ± 110 nM.
With `CN1C(=O)C(=CN/N=C/c2cc(Cl)ccc2[N+](=O)[O-])C(=O)N(C)C1=O` [Compound 7l, (E)-5-((2-(5-chloro-2-nitrobenzylidene)hydrazinyl)methylene)-1,3-dimethylpyrimidine-2,4,6(1H,3H,5H)-trione], in data set [1] (setting [4]), the IC50 came out at 1340 ± 120 nM.
Consider `CN1C(=O)C(=CN/N=C/c2cccc(Cl)c2Cl)C(=O)N(C)C1=O` [Compound 7j, (E)-5-((2-(2,3-dichlorobenzylidene)hydrazinyl)methylene)-1,3-dimethylpyrimidine-2,4,6(1H,3H,5H)-trione], for which, in data set [1] (setting [4]), the IC50 was 4520 ± 310 nM.
As to `NC(N)=S` [Thiourea, reference compound], the IC50 in data set [1] (setting [4]) is 23000 ± 1700 nM.
As to `CN1C(=O)C(=CN/N=C/c2ccccc2O)C(=O)N(C)C1=O` [Compound 7b, (E)-5-((2-(2-hydroxybenzylidene)hydrazinyl)methylene)-1,3-dimethylpyrimidine-2,4,6(1H,3H,5H)-trione], the IC50 in data set [1] (setting [4]) worked out at 3090 ± 130 nM.
Take `CN1C(=O)C(=CN/N=C/c2ccc(O)cc2O)C(=O)N(C)C1=O` [Compound 7c, (E)-5-((2-(2,4-dihydroxybenzylidene)hydrazinyl)methylene)-1,3-dimethylpyrimidine-2,4,6(1H,3H,5H)-trione]: in data set [1] (setting [4]), the IC50 stood at 1200 ± 50 nM.
